In patent US10758534B2 (Vertex Pharmaceuticals Incorporated, priority 2014, dated 2020):

Each compound was assayed against T1, F508del (Homo sapiens, UniProt P13569, DEL508-508) (assay: Protocol 2: FRET membrane potential optical assay (VIPR), identification of correction compounds). Conditions: F508del CFTR modulator activity; compounds of Table 1; read-out: EC30.
T1 construct: expressed in transfected cells
T1 sequence (P13569 with tags, fused parts or gaps DEL508-508): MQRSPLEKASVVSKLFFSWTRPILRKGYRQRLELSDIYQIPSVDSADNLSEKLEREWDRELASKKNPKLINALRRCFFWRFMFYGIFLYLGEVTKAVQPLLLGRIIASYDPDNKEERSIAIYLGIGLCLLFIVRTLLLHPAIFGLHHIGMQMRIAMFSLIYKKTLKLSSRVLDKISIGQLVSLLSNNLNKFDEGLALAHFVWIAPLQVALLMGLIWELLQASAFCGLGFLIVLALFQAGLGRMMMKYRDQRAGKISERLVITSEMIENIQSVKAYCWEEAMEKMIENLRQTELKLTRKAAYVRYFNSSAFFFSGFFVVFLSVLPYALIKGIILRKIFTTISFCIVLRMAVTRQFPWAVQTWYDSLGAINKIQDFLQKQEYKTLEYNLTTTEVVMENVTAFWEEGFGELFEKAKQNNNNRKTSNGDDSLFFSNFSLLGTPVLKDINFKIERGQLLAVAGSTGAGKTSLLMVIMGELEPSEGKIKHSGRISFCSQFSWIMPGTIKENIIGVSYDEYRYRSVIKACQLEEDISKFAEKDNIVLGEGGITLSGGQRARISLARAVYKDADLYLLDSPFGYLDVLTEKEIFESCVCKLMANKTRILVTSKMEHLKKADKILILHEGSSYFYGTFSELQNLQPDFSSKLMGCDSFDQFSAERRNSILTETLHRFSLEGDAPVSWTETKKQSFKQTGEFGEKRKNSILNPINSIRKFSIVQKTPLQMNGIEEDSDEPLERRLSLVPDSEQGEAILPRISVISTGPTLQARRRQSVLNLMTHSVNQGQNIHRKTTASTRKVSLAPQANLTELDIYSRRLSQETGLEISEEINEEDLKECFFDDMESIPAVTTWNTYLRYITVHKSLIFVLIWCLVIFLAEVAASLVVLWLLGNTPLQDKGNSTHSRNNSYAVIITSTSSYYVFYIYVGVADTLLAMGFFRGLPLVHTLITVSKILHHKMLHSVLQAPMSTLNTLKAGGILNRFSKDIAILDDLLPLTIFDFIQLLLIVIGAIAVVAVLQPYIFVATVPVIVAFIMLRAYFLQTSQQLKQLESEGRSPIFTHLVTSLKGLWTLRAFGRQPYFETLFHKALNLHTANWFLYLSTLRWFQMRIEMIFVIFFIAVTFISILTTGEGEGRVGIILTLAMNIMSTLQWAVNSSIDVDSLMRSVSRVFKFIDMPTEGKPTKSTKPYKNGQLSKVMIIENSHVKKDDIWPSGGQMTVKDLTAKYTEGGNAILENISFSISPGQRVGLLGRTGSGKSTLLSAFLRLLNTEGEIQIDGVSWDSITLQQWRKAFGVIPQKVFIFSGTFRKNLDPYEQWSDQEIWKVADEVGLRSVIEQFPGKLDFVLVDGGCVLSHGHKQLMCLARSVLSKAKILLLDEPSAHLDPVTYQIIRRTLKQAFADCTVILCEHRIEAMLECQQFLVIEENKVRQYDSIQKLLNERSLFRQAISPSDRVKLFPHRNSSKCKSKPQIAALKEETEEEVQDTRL
Type: cell-based
In short: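 Single-addition HTS format: F508del-expressing NIH3T3 cells pre-incubated 16 hrs at 37° C. ± compound, with 27° C. culture as positive control. Channel activation by forskolin 10 μM and genistein 20 μM upon switch to gluconate bath, pH 7.4; read-out is FRET-based depolarization signal.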
For CC1CN(c2ncccc2C(=O)NS(=O)(=O)c2cccc(N3CCCC3C)n2)C(C)(C)C1 (centres unmarked) [Compound 2609, N—[[6-(2-methylpyrrolidin-1-yl)-2-pyridyl]sulfonyl]-2-(2,2,4-trimethylpyrrolidin-1-yl)pyridine-3-carboxamide], the EC30 was under 3 µM. Compound COc1cccc(S(=O)(=O)NC(=O)c2cccnc2N2CC(C)CC2(C)C)n1 (centres unmarked) [Compound 2430] has an EC30 of 3 to 10 µM. Work on Cc1cc(-c2ccc(C(=O)NS(=O)(=O)c3cccc(N)n3)c(N3C[C@@H](C)CC3(C)C)n2)cnc1N(C)CC(C)C [Compound 2279, N-[(6-amino-2-pyridyl)sulfonyl]-6-[6-[isobutyl(methyl)amino]-5-methyl-3-pyridyl]-2-[(4S)-2,2,4-trimethylpyrrolidin-1-yl]pyridine-3-carboxamide] yielded an EC30 of under 3 µM. Compound CC(C)COc1cc(F)cc(-c2ccc(C(=O)NS(=O)(=O)N3CC[C@@H](N)C3)c(N3CCCC3(C)Cc3ccccc3)n2)c1 (single isomer, unassigned) [Compound 2325] has an EC30 of under 3 µM. Work on CCOc1ccc(F)cc1-c1ccc(C(=O)NS(=O)(=O)c2ccc[nH]c2=O)c(N2C[C@@H](C)CC2(C)C)n1 [Compound 2051, 6-(2-ethoxy-5-fluoro-phenyl)-N-[(2-oxo-1H-pyridin-3-yl)sulfonyl]-2-[(4S)-2,2,4-trimethylpyrrolidin-1-yl]pyridine-3-carboxamide] yielded an EC30 of under 3 µM. With C[C@@H]1CN(c2ncccc2C(=O)NS(=O)(=O)N2CCN(CCCc3ccc(Cl)cc3)CC2)C(C)(C)C1 [Compound 2141, N-[4-[3-(4-chlorophenyl)propyl]piperazin-1-yl]sulfonyl-2-[(4S)-2,2,4-trimethylpyrrolidin-1-yl]pyridine-3-carboxamide] the EC30 was under 3 µM. In the case of C[C@@H]1CN(c2nc(-c3ccc4cc(O)ccc4c3)ccc2C(=O)NS(=O)(=O)c2cccnc2N)C(C)(C)C1 [Compound 2468, N-[(2-amino-3-pyridyl)sulfonyl]-6-(6-hydroxy-2-naphthyl)-2-[(4S)-2,2,4-trimethylpyrrolidin-1-yl]pyridine-3-carboxamide], the EC30 is reported as under 3 µM. With CCOc1ccccc1-c1ccc(C(=O)NS(=O)(=O)N2CC[C@H](N)C2)c(N2C[C@@H](C)CC2(C)C)n1 [Compound 2050, N-[(3S)-3-aminopyrrolidin-1-yl]sulfonyl-6-(2-ethoxyphenyl)-2-[(4S)-2,2,4-trimethylpyrrolidin-1-yl]pyridine-3-carboxamide] the EC30 was under 3 µM. COc1ccc(Cl)cc1COc1cccc(S(=O)(=O)NC(=O)c2cccnc2N2CC(C)CC2(C)C)n1 (centres unmarked) [Compound 2645, N—[[6-[(5-chloro-2-methoxy-phenyl)methoxy]-2-pyridyl]sulfonyl]-2-(2,2,4-trimethylpyrrolidin-1-yl)pyridine-3-carboxamide] showed an EC30 of under 3 µM. In the case of COC1CCN(c2cccc(S(=O)(=O)NC(=O)c3cccnc3N3CC(C)CC3(C)C)n2)CC1 (centres unmarked) [Compound 2732], the EC30 is reported as 3 to 10 µM. With Cc1ccc(-c2ccc(C(=O)NS(=O)(=O)c3cccnc3N)c(N3C[C@@H](C)CC3(C)C)n2)cc1C [Compound 2017, N-[(2-amino-3-pyridyl)sulfonyl]-6-(3,4-dimethylphenyl)-2-[(4S)-2,2,4-trimethylpyrrolidin-1-yl]pyridine-3-carboxamide] the EC30 was under 3 µM. Compound CC1CN(c2ncccc2C(=O)NS(=O)(=O)c2cccc(Nc3cc(F)cc(F)c3)n2)C(C)(C)C1 (centres unmarked) [Compound 2282, N—[[6-(3,5-difluoroanilino)-2-pyridyl]sulfonyl]-2-(2,2,4-trimethylpyrrolidin-1-yl)pyridine-3-carboxamide] has an EC30 of under 3 µM. In the case of CC(C)Cc1ccc(C(=O)NS(=O)(=O)c2ccc[nH]c2=O)c(N2C[C@@H](C)CC2(C)C)n1 [Compound 2467, 6-isobutyl-N-[(2-oxo-1H-pyridin-3-yl)sulfonyl]-2-[(4S)-2,2,4-trimethylpyrrolidin-1-yl]pyridine-3-carboxamide], the EC30 is reported as under 3 µM. Compound CC(=O)c1cccc(Oc2cccc(S(=O)(=O)NC(=O)c3cccnc3N3CC(C)CC3(C)C)n2)c1 (centres unmarked) [Compound 2569, N—[[6-(3-acetylphenoxy)-2-pyridyl]sulfonyl]-2-(2,2,4-trimethylpyrrolidin-1-yl)pyridine-3-carboxamide] has an EC30 of under 3 µM. For CC1CN(c2ncccc2C(=O)NS(=O)(=O)c2cccc(Nc3ccc(Cl)cc3Cl)n2)C(C)(C)C1 (centres unmarked) [Compound 2217, N—[[6-(2,4-dichloroanilino)-2-pyridyl]sulfonyl]-2-(2,2,4-trimethylpyrrolidin-1-yl)pyridine-3-carboxamide], the EC30 was under 3 µM. With Cc1cc(-c2ccc(C(=O)NS(=O)(=O)c3cccc(N)n3)c(N3C[C@@H](C)CC3(C)C)n2)cc(OCC(C)C)n1 [Compound 2010, N-[(6-amino-2-pyridyl)sulfonyl]-6-(2-isobutoxy-6-methyl-4-pyridyl)-2-[(4S)-2,2,4-trimethylpyrrolidin-1-yl]pyridine-3-carboxamide] the EC30 was under 3 µM.

Same assay, conditions: Table 3; compounds of Table 1 as modulators of CFTR activity; protocol not stated
With COc1cccc(-c2ccc(C(=O)NS(=O)(=O)c3cccc(N)n3)c(Oc3c(C)cc(C)cc3C)n2)c1 [Compound 413, N-[(6-amino-2-pyridyl)sulfonyl]-6-(3-methoxyphenyl)-2-(2,4,6-trimethylphenoxy)pyridine-3-carboxamide] the EC30 was “+++ (“+++” means <3 uM)”. Cc1cccc(-c2nc(C(C)(C)C)ccc2C(=O)NS(=O)(=O)c2cccc(N)n2)c1 [Compound 31, N-[(6-amino-2-pyridyl)sulfonyl]-6-tert-butyl-2-(m-tolyl)pyridine-3-carboxamide] was tested, and the EC30 was “++ (“++” means between 3 uM and 10 uM)”. With Cc1cc(C)c(Oc2nc(C3CC3)cc(C(F)(F)F)c2C(=O)NS(=O)(=O)c2cccc(N)n2)c(C)c1 [Compound 54, N-[(6-amino-2-pyridyl)sulfonyl]-6-cyclopropyl-4-(trifluoromethyl)-2-(2,4,6-trimethylphenoxy)pyridine-3-carboxamide] the EC30 was “++ (“++” means between 3 uM and 10 uM)”. Cc1cccc(C)c1Cn1nc(-c2ccc(N3CCCCC3)nc2)cc1C(=O)NS(=O)(=O)c1ccccc1 [Compound 329, N-(benzenesulfonyl)-2-[(2,6-dimethylphenyl)methyl]-5-[6-(1-piperidyl)-3-pyridyl]pyrazole-3-carboxamide] was tested, and the EC30 was “+++ (“+++” means <3 uM)”. For CC(C)COc1cc(F)cc(-c2ccc(C(=O)NS(=O)(=O)c3cccc(N)n3)c(N3CCC(C(F)(F)F)C3(C)C)n2)c1 (centres unmarked) [Compound 780, N-[(6-amino-2-pyridyl)sulfonyl]-2-[2,2-dimethyl-3-(trifluoromethyl)pyrrolidin-1-yl]-6-(3-fluoro-5-isobutoxy-phenyl)pyridine-3-carboxamide], the EC30 was “+++ (“+++” means <3 uM)”. In the case of COc1c(C)cccc1S(=O)(=O)NC(=O)c1cc(C(C)(C)C)nn1Cc1c(C)cccc1C [Compound 59, 5-tert-butyl-2-[(2,6-dimethylphenyl)methyl]-N-(2-methoxy-3-methyl-phenyl)sulfonyl-pyrazole-3-carboxamide], the EC30 is reported as “+++ (“+++” means <3 uM)”. With Cc1cc(C)c(Cn2c(C(=O)NS(=O)(=O)c3ccccc3)cc3c(Cl)cccc32)c(C)c1 [Compound 127, N-(benzenesulfonyl)-4-chloro-1-[(2,4,6-trimethylphenyl)methyl]indole-2-carboxamide] the EC30 was “+++ (“+++” means <3 uM)”. In the case of COc1ncc(-c2ccc(C(=O)NS(=O)(=O)c3cccc(N)n3)c(Oc3ccc(C)cc3C)n2)cc1C [Compound 533, N-[(6-amino-2-pyridyl)sulfonyl]-2-(2,4-dimethylphenoxy)-6-(6-methoxy-5-methyl-3-pyridyl)pyridine-3-carboxamide], the EC30 is reported as “+++ (“+++” means <3 uM)”. With CC(C)(C)c1ccc(C(=O)NS(=O)(=O)c2cccc(N)c2)c(-c2ccc3c(c2)CCC3)n1 [Compound 308, N-(3-aminophenyl)sulfonyl-6-tert-butyl-2-indan-5-yl-pyridine-3-carboxamide] the EC30 was “+++ (“+++” means <3 uM)”. In the case of COc1ncccc1S(=O)(=O)NC(=O)C1(C)c2ccccc2CN1Cc1c(C)cc(C)cc1C (centres unmarked) [Compound 765, N-[(2-methoxy-3-pyridyl)sulfonyl]-1-methyl-2-[(2,4,6-trimethylphenyl)methyl]isoindoline-1-carboxamide], the EC30 is reported as “++ (“++” means between 3 uM and 10 uM)”. For CC(C)COc1cc(F)cc(-c2ccc(C(=O)NS(=O)(=O)c3ccc[nH]c3=O)c(N3C[C@@H](C)CC3(C)C)n2)c1 [Compound 492, 6-(3-fluoro-5-isobutoxy-phenyl)-N-[(2-oxo-1H-pyridin-3-yl)sulfonyl]-2-[(4S)-2,2,4-trimethylpyrrolidin-1-yl]pyridine-3-carboxamide], the EC30 was “+++ (“+++” means <3 uM)”. For Cc1cc(C)c(Oc2nc(-c3cccc(OCC(C)C)c3)ccc2C(=O)NS(=O)(=O)c2cccc(N)n2)c(C)c1 [Compound 8, N-[(6-amino-2-pyridyl)sulfonyl]-6-(3-isobutoxyphenyl)-2-(2,4,6-trimethylphenoxy)pyridine-3-carboxamide], the EC30 was “+++ (“+++” means <3 uM)”. With Cc1ccc(-c2nc(C(C)(C)C)ccc2C(=O)NS(=O)(=O)c2cccc(N)c2)cc1 [Compound 301, N-(3-aminophenyl)sulfonyl-6-tert-butyl-2-(p-tolyl)pyridine-3-carboxamide] the EC30 was “++ (“++” means between 3 uM and 10 uM)”. In the case of Cc1cc(C)c(Cn2nc(C(C)(C)C)cc2C(=O)NS(=O)(=O)c2ccc(O)cc2)c(C)c1 [Compound 269, 5-tert-butyl-N-(4-hydroxyphenyl)sulfonyl-2-[(2,4,6-trimethylphenyl)methyl]pyrazole-3-carboxamide], the EC30 is reported as “+++ (“+++” means <3 uM)”. For CC(C)CC(C)Oc1cc(-c2ccc(C(=O)NS(=O)(=O)c3cccc(N)n3)c(N3CC(C)CC3(C)C)n2)ccn1 (centres unmarked) [Compound 384, N-[(6-amino-2-pyridyl)sulfonyl]-6-[2-(1,3-dimethylbutoxy)-4-pyridyl]-2-(2,2,4-trimethylpyrrolidin-1-yl)pyridine-3-carboxamide], the EC30 was “+++ (“+++” means <3 uM)”. With CC(C)COc1cc(F)cc(-c2ccc(C(=O)NS(=O)(=O)c3cccc(N)n3)c(N3CC4(CCC4)C3)n2)c1 [Compound 527, N-[(6-amino-2-pyridyl)sulfonyl]-2-(6-azaspiro[3.3]heptan-6-yl)-6-(3-fluoro-5-isobutoxy-phenyl)pyridine-3-carboxamide] the EC30 was “+++ (“+++” means <3 uM)”.
